Data set [1] in a line: Evolution of turbidity of swimming pool water samples (HACH turbidity meter). The format is physicochemical. The conditions noted are these: for Turbidity: Aquacid or metasilicate 40.0 mg/L. The source says: The aim of this test was to compare the effect of two compositions comprising sodium chloride and isocyanuric acid in disinfecting swimming pool water, one further comprising HEDP, and the other metasilicate in order to obtain a composition according to the invention.
In all of the examples below, the substances used were as follows: • salt; • isocyanuric acid; • Aquacid© (powder with 72% HEDP); • disodium metasilicate pentahydrate; • tap water; • commercial bleach (concentration of bleach: 2.15% of active chlorine); • 1N hydrochloric acid; • 35% sulfuric acid; • sodium hydroxide; and • acetone.
The following proportions were prepared to prepare the samples:
The measurement of the turbidity, in NTU (Nephelometric Turbidity Unit), was carried out with the aid of a HACH turbidity meter at the time intervals indicated in Table 3. The reaction conditions were selected in order to accelerate the appearance of any cloudiness.

A short description of data set [2]: Anti-limescale effect: calcium deposited as limescale on beaker walls. The conditions noted are these: for anti-limescale activity: conclusion in words; for % non limescale calcium / Calcium (part of the calcium responsible for the production of limescale): sample 11 Aquacid 24.0 mg/L, sample 14 metasilicate 20.0 mg/L. The method, then:
The aim of this test was to analyze the reaction of two additives (HEDP, metasilicate) in the presence of calcium.
The apparatus used was as follows: • new beakers with a volume of 400 milliliters (mL), a pH meter, an oven at 70° C., plastic film as well as normal laboratory apparatus (including class A glassware).
The operating protocol can be summarized as follows: • For each test formulation, 300 mL of equivalent swimming pool solution was prepared in the beakers provided. Each series of analyses was spread over two types of water: one with a HT=30° F. and one with a HT=15° F., in order to produce a spectrum of results covering a broad range of water types. The isocyanuric acid was added in the liquid form from a 1 grams per liter (g/L) solution. The additives (HEDP, metasilicate) for the formulations were added in the liquid form from 1 g/L solutions. The solutions were systematically buffered, either with sulfuric acid or with sodium hydroxide, in order to provide an initial pH in the range 6.8 to 7.4 (maximum efficiency range for chlorine). The solutions were left covered with film and were analyzed 3 days later so that the substances had reacted. At the time the analysis was carried out, the beakers were placed in an oven at 70° C. in order to evaporate the liquid phase. They were then rinsed with 100 ml of osmosis purified water in order to eliminate the soluble deposits and to leave only limescale deposits on their walls. The beakers were then refilled with osmosis purified water and 1 mL of 1N hydrochloric acid in order to dissolve the deposits: the measurements were carried out on these solutions.
The parameters below were monitored during the study: • The following were measured for the starting tap water: pH, HT (hydrptimetric titer), calcium, AT (alkalimetric titer), and CAT (complete alkalimetric titer).
The pH was monitored throughout the experiment. The calcium was measured at the end of the experiment.

Data set [3] is described as follows: Chlorine stabilizing effect under UV radiation (residual chlorine assay). As to conditions: for Residual chlorine: starting 3 mg/L Cl2, sample 11 Aquacid 24.0 mg/L, sample 14 metasilicate 20.0 mg/L. The format is physicochemical. The method, then: In the presence of UV radiation, chlorine is destroyed photochemically. Isocyanuric acid can be used to reduce the destruction of chlorine under the effect of UV.
The following apparatus was used: 5 liter volume bucket, pH meter and normal laboratory apparatus (including class A glassware).
The operating procedure can be summarized as follows: • For each test formulation, two liters of solution was prepared in the buckets provided. The isocyanuric acid was added in the liquid form from a 1 g/L solution. The additives (metasilicates, HEDP) for the formulations were added in the liquid form from 1 g/L solutions. The dose of chlorine necessary for this study was provided by bleach in quantities that meant that solutions containing 3 mg/L of Cl2 were obtained. The solutions were systematically buffered, either with sulfuric acid or with sodium hydroxide, in order to provide a starting pH in the range 6.8 to 7.4 (zone of maximum efficiency for chlorine).
The following parameters were measured during the study: • for the starting water: pH, residual chlorine, HT, calcium, AT, CAT were measured; • throughout the experiment: pH, residual chlorine were monitored.
The chlorine measurements were carried out using quantitative chlorine assay. The measurements were carried out at times T+32 h10 and T+50 h10; the formulation of the compositions at time T are given in Table 4.

A short description of data set [4]: Anti-corrosion effect: steel plate immersed in 4 g/L saline solutions. As to conditions: for anti-corrosion activity: conclusion in words; for Fe loss/plate: results at 2 months, 4 g/L saline, sample 11 Aquacid 24.0 mg/L, sample 14 metasilicate 20.0 mg/L. The method, then: The principle of the method consists of completely immersing, in 4 g/L saline solutions with the compounds of the formulations, one steel plate per beaker, disposed vertically in order to have as little contact as possible with the glass. The formulations were those presented in section 4 in Example 3.
The efficacy of the formulations was evaluated as a function of the loss on ignition of the plate over a period of time, namely 2 months.
The following apparatus was used: • 400 mL beakers, pH-meter, steel plate with a surface area of 5.3 cm^2, plastic film as well as normal laboratory apparatus (including class A glassware). The operating protocol can be summarized as follows:
• stripping the plates with 1N hydrochloric acid using ultrasound in order to have plates of identical quality; • degreasing the plate with acetone in order to obtain identical active surfaces; • weighing the plates with milligram precision.
Swimming pool concentration solutions were prepared in advance in 2 liters (L) graduated flasks in order to provide mutually homogeneous media. The beakers were filled with 300 mL of the above-mentioned solutions. The beakers were covered with food quality film in order to prevent the medium from being polluted and in order to prevent too much evaporation.
The parameters measured were as follows: • on the tap water: pH, HT, AT, CAT, calcium.
In order to accelerate the phenomenon of corrosion, bubbling was carried out using an aquarium pump and outlet jets mounted on a rail. The bubbling time was 10 minutes. The solutions were aerated on odd days of the week. Since bubbling raises the pH, it was brought back to swimming pool in-service values, between 6.8 and 7.4. In order to maintain the salinity at 4 g/L and to overcome natural evaporation, tap water was added in order to keep the volume of water constant at 300 mL.
The following parameters were measured: • pH; • observations of the solutions and immersed plates once a day, taking photographs. These observations were made without handling either the beakers or the solutions.
The scraping spatula was treated with ultrasound then the plates were scraped using the spatula to recover the deposit. In order to terminate stripping of the plate and thus to collect all of the deposit, the plate and the spatula were treated with ultrasound in a water bath. The deposits were then filtered through 10 micrometer (pm) pores and 1.2 μm pores and then dried.
The following parameters were measured: • the plates were weighed to milligram precision; • an iron analysis was carried out on the plates; • a dissolved iron analysis was carried out on the solutions.
The analyses were carried out after 2 months.

Setting [5] is: time T, salt 4.0 g/L, iso acid 28.0 mg/L, chlorine 3.0 mg/L.
[6] abbreviates: first starting water, HT 27 °f, calcium 109 mg/L.
The mark [7] stands for this setting: second starting water, HT 14.6 °f.
Where [8] appears, read: second starting water, HT 14.6 °f, calcium 44.3 mg/L.

Regarding `CC(O)(P(=O)(O)O)P(=O)(O)O` [HEDP, 1-hydroxyethane-1,1-diphosphonic acid, reference compound], the Turbidity in data set [1] (T + 94 h) worked out at 20.5 NTU; in data set [1] (T + 118 h) it was 22.5 NTU; in data set [1] (T + 142 h), 30.1 NTU; in data set [1] (T + 168 h), 34.2 NTU; in data set [1] (T + 192 h), 44.4 NTU; in data set [1] (T + 216 h) it was 56.8 NTU. In data set [1] (setting [5]), the Turbidity amounted to 0.243 NTU. Also, the anti-limescale activity result in data set [2] was “have an anti-limescale activity”. Moreover, the “calcium in the water before treatment transformed into limescale” value in data set [2] (first starting water, HT 27 °f) turned out to be 7.9%. In addition, the “% non limescale calcium” value in data set [2] (setting [6]) is on record as 92.1%; in data set [2] (setting [8]) it was 91.4%. The “Calcium (part of the calcium responsible for the production of limescale)” value in data set [2] (setting [6]) is reported as 8.6 mg/L; in data set [2] (setting [8]) it was 3.8 mg/L. The “calcium of the water before treatment transformed into limescale” value in data set [2] (setting [7]) is on record as 8.6%. The Loss of chlorine in data set [3] (T + 32 h 10) and in data set [3] (T + 50 h 10) was 100.00% each time. The Residual chlorine in data set [3] (T + 32 h 10) and in data set [3] (T + 50 h 10) was 0 mg/L throughout. The anti-corrosion activity result in data set [4] was “have an anti-corrosion activity”. In data set [4], the Fe loss/plate was 2.80%.
With `O.O.O.O.O.O=[Si]([O-])[O-].[Na+].[Na+]` [Metasilicate, disodium metasilicate pentahydrate], the Turbidity amounted to 0.538 NTU in data set [1] (T + 94 h); 0.547 NTU in data set [1] (T + 118 h); 0.526 NTU in data set [1] (T + 142 h); 0.579 NTU in data set [1] (T + 168 h); 1.4 NTU in data set [1] (T + 192 h); 1.45 NTU in data set [1] (T + 216 h). Moreover, in data set [1] (setting [5]), the Turbidity stood at 0.274 NTU. In addition, the “cloudiness of the water detectable to the naked eye” value in data set [1] (same conditions as Table 3) is “does not induce any cloudiness”. The anti-limescale activity result in data set [2] was “better anti-limescale activity than that of the HEDP”. Moreover, the “calcium in the water before treatment transformed into limescale” value in data set [2] (first starting water, HT 27 °f) worked out at 3.5%. Also, the results for the “% non limescale calcium” value in data set [2] (setting [6]) and in data set [2] (setting [8]) were 96.5% and 94.1%, respectively. Moreover, the “Calcium (part of the calcium responsible for the production of limescale)” value in data set [2] (setting [6]) is recorded as 3.8 mg/L; in data set [2] (setting [8]), 2.6 mg/L. In addition, in data set [2] (setting [7]), the “calcium of the water before treatment transformed into limescale” value is listed as 5.9%. In addition, the Loss of chlorine was 36.36% in data set [3] (T + 32 h 10) and 62.96% in data set [3] (T + 50 h 10). Also, the Residual chlorine in data set [3] (T + 32 h 10) is 1.89 mg/L; in data set [3] (T + 50 h 10) it was 1.1 mg/L. In addition, the “preservation of the residual chlorine concentration” value in data set [3] (conclusion in words) is reported as “preserves the residual chlorine concentration better than HEDP”. Moreover, in data set [4], the anti-corrosion activity entry is “anti-corrosion activity that is even better than that of HEDP”. In addition, the Fe loss/plate in data set [4] is recorded as 1.63%.

The values are drawn from patent US20130270195A1, “MULTIFUNCTIONAL COMPOSITION FOR THE DISINFECTION TREATMENT OF WATER, AND USE OF THIS COMPOSITION” (Compagnie Des Salins Du Midi Et Des Salines De L'Est, priority 2010, published 2013).
